One molecule from patent US12187662B2, “FOXM1 inhibitor compositions and methods of using the same” (The Board of Trustees of the University of Illinois, priority 2018, dated 2025) can be followed below.

Data set [1] relates to FOXM1 target genes in MCF7 cells. As to the kind of experiment: FOXM1 target gene expression by qRT-PCR, MCF7. The data set is classed as cell-based, human. The settings on record: MCF7, 24 h, at IC50 concentration. As for the experimental part: (§1) RNA was extracted from cells and expression of different genes was monitored by qRT-PCR. Assays were run in triplicate. Values are mean±SEM. *, p<0.05; **, p<0.01; ***, p<0.001. RNA isolation and real-time PCR Total RNA was isolated using TRIzol (Invitrogen) and reverse transcribed using […] reverse transcriptase (New England BioLabs). Real-time PCR was performed using SYBRgreen PCR Master Mix (Roche) as described (Bergamaschi et al., Breast Cancer Res., 2014, 16:436). Relative mRNA levels of genes were normalized to the housekeeping gene 36B4, and fold change calculated relative to the vehicle treated samples. Results are the average±SD from at least two independent experiments carried out in triplicate. Primer sequences for the genes studied were obtained from the Harvard Primer Bank. Sequences are available on their website.
For orientation: In qPCR the cycle at which signal appears reflects the starting amount.

Data set [2] concerns FOXM1 cistrome genes in MDA-MB-231 cells. As to the kind of experiment: RNA-Seq Gene Set Enrichment Analysis, MDA-MB-231. The data set is classed as cell-based, human. To be noted: NB-73 […] 24 h, siFOXM1 25 nM 72 h. As for the experimental part: RNA-Seq transcriptional profiling and gene ontology analysis For gene expression analysis, total RNA was extracted from cells using Trizol reagent and further cleaned using the Turbo DNase and RNAqueous kits (ThermoFisher). Cells were treated with Veh (0.1% EtOH), or with the compounds indicated for 9 h or 24 h. Once the sample quality and replicate reproducibility were verified, samples from each group were subjected to sequencing. RNA at a concentration of 100 ng/μL in nuclease-free water was used for library construction. cDNA libraries were prepared with the mRNA-TruSeq Kit (Illumina, Inc.). In brief, the poly-A containing mRNA was purified from total RNA, the RNA was fragmented, double-stranded cDNA was generated from fragmented RNA, and adapters were ligated to the ends.
The paired-end read data from the HiSeq 4000 were processed and analyzed through a series of steps. […] Reads were trimmed of adapters and low expression data using Trimmomatic version 0.38. The star alignment tool version 2.5.3a was used to align the sequenced reads to the GRCh37 human genome from Ensembl. Gene counts were calculated using subread version 1.5.2. […]
Gene Set Enrichment Analysis (GSEA) was used for examination of the genome-wide expression profiles. Overrepresented GO biological processes were determined by the web-based DAVID Bioinformatics Resources database.

For data set [3], the system named is DT22 triple negative human breast tumor xenografts. As to the kind of experiment: DT22 triple negative breast tumor xenografts in NSG mice. The data set is classed as in vivo, mouse. The settings on record: for Expression of FOXM1-regulated genes in tumors: q-PCR at end of treatment. The procedure: In vivo breast cancer xenograft studies For examination of the growth of triple-negative DT22 breast tumors, intact female NOD/SCID-gamma (NSG) mice were used. DT-22 cells (1×10^6 cells/mouse) were injected s.c. into the right axial mammary gland. Mice received s.c. injection or oral gavage daily or every second or third day, as indicated, with vehicle or FOXM1 inhibitor compound, and tumor growth was monitored over time.

Data set [4] in a line: Pharmacokinetic studies in mice after single s.c. or oral dose.
The test system of data set [5] is FOXM1 target genes in DT22 cells. As to the kind of experiment: FOXM1 target gene expression by qRT-PCR, DT22. The data set is classed as cell-based, human. To be noted: DT22, 24 h, at IC50 concentration.
Text: as §1, with “Real-time PCR was performed using SYBRgreen PCR Master Mix (Roche) as described (Bergamaschi et al., Breast Cancer Res., 2014, 16:436).” left out

For data set [6], the system named is tamoxifen-resistant MCF7 breast cancer cells. As to the kind of experiment: Proliferation of tamoxifen-resistant MCF7 cells. The data set is classed as cell-based, human. To be noted: 6 days. As for the experimental part:
Values are mean±SD of three separate assays. Cell proliferation assay WST-1 assay (Roche, Basel, Switzerland) was used to quantify cell viability as described (Gong et al., Mol. Cell Endocrinol., 2016, 437:190-200). Absorbance was measured at 450 nm using a VICTOR X5 PerkinElmer 2030 Multilabel Plate Reader. All assays were performed in triplicate.

One may read the half-life as how long it takes for the measured level to halve. For orientation: AUC(0-t) means exposure summed from dosing to a finite time, without extrapolation to infinity. A lower AUC(0-t) goes with less exposure. Regarding `C[N+]1(CCCCCCOc2ccc(C(c3ccc(OCCCCCC[N+]4(C)CCCCCC4)cc3)=C3C4C[C@H]5C[C@@H](C4)C[C@H]3C5)cc2)CCCCCC1` [NB-73, 1,1′-((((((5r,7r)-adamantan-2-ylidene)methylene)bis(4,1-phenylene))bis(oxy))bis(hexane-6,1-diyl))bis(1-methylazepan-1-ium) diiodide], the “Expression of ATF3 (gene suppressed by FOXM1)” value in data set [1] and in data set [5] was “increased” in each case. The “Expression of FOXM1 stimulated target genes (FOXM1C, AURKB, CCNB1, PLK1)” value in data set [1] and in data set [5] was “significantly reduced” throughout. Moreover, the “GSEA enrichment against FOXM1 target gene sets” value in data set [2] is reported as “negative enrichment scores”. Besides, the “Growth of DT22 tumor xenografts” value in data set [3] (5 mg/kg s.c. daily, every other day from day 21) is “reduced tumor growth”; in data set [3] (10 mg/kg s.c. daily, every other day from day 21) it was “even more markedly suppressed growth”; in data set [3] (s.c., 20 mg/kg every other day for first 10 days then 10 mg/kg every other day) it was “greatly suppress tumor growth”. Also, the figures for the “Expression of FOXM1-regulated genes in tumors” value in data set [3] (5 mg/kg s.c.) and in data set [3] (10 mg/kg s.c.) were “significant reduction” and “greatly reduced”, respectively. Also, the “Tumor growth in vivo, low doses” value in data set [3] (5 or 10 mg/kg s.c. every second or third day) is on record as “greatly suppress tumor growth”. Moreover, the half-life in data set [4] (female, CD-1, mouse, plasma, sc) was 25 to 40 h; in data set [4] (female, CD-1, mouse, plasma, sc, 60 mg/kg), 170 h. For the same molecule, in data set [4] (female, CD-1, mouse, plasma, sc, 60 mg/kg, PK s.c. AUC0-48, mice, 60 mg/kg s.c.), the AUC(0-t) was determined as 190 µM·h. In addition, the “PK p.o. AUC0-48” value in data set [4] (mice, 60 mg/kg p.o.) is on record as “too low to measure”. The “Blood levels after oral administration” value in data set [4] (mice, oral, doses of FIGS. 6A-6B) is reported as “very low levels”. In data set [4] (mice, s.c., doses of FIGS. 6A-6B), the “Blood levels after s.c. injection” value is reported as “very high blood levels”. In addition, in data set [6], the “Effect on proliferation of tamoxifen-resistant MCF7 cells” value is “effectively suppressed”.
